For 87 compounds, melting point results are on record in a melting point compilation (Tetko et al.; mined from patent text by program, amines drawn as free bases though some values may be those of a salt).

Usually melting point stands for the temperature of the solid-liquid transition. Compound `CCOC(=O)c1c(C(C)(C)O)nc(SC)n1Cc1ccc(-c2ccccc2-c2nnnn2C(c2ccccc2)(c2ccccc2)c2ccccc2)cc1` had a melting point of 125 to 127 °C.
The compound `COC1CCC2C3CCC4CC(O)CCC4(C)C3CCC12C` (configuration not stated) came in with a melting point of 150 to 152 °C.
As to `CC(C)n1cc(C(=O)O)c2ccc(Cl)cc21`, the melting point was in the range of 206 to 208 °C.
Compound `CCCCc1oc2ccc(C(=O)OC)cc2c1C(=O)c1ccc(CCN=[N+]=[N-])cc1` returned a melting point of 60 to 62 °C.
Consider `COC(=O)Nc1nc2cnc3ccccc3c2n1CC(C)(C)O`, for which the melting point stood at 225 °C.
The figure for `O=C(CN1CCOCC1)N[C@@H](Cc1ccccc1)[C@@H](O)[C@H](O)[C@H](Cc1ccccc1)NC(=O)CN1CCOCC1` is 172 to 177 °C; for `COc1ccc(C2C(C#N)=C(N)OC3=C2C(=O)CC(C)(C)C3)cc1` (configuration not stated) it is 197 to 200 °C.
The result for `COC(=O)C1C(c2ccc(Br)cc2)CC2CCC1N2C` (configuration not stated) reads 114 to 116 °C.
`CC(C)(CC(O)(Cn1ccc2c1CCCC2=O)C(F)(F)F)c1cccc2c1OCC2` (configuration not stated) had a melting point of 145 to 146 °C.
The figure for `Cc1cccc(-c2n[nH]cc2-c2ccc(F)c(-c3cc[nH]n3)c2)n1` is 105 to 108 °C.
The result for `Cc1cccc([N+](=O)[O-])c1CO` reads 67 to 68 °C; that for `O=C(Cl)C(=O)c1cn(Cc2ccc(F)cc2)c2ccc(OCc3ccccc3)cc12`, 155 to 158 °C; that for `O=C(N[C@H]1C[C@H](C(=O)O)Nc2cc(Cl)cc(Cl)c21)C1c2ccccc2-c2ccccc21` (relative stereo), 266 to 268 °C.
The figure for `CCc1ccc(C=C2C(=O)c3cc(O)ccc3OC2c2ccc(CC)cc2)cc1` (configuration not stated) is 178 to 180 °C; for `COCNC(=O)NC(=O)C(C#N)=NOC` it is 164 to 165 °C; for `CCCOc1ccccc1-c1nccc(=O)[nH]1` it is 112 to 113 °C.
With `CC1(C)Oc2cc3nonc3cc2[C@@H](NC(=O)Nc2ccccc2)[C@@H]1O` (relative stereo), the melting point lay within 215 to 216 °C.
With `C=C1SC(=O)N(c2ccc3cc(-c4cc5c(c(-c6ccncc6)c4)OCO5)ccc3c2)C1=O`, the melting point lay in the range of 304 to 307 °C.
For the compound `Cn1ccnc1COc1cc(Cl)ncn1`, the melting point was in the range of 126 to 128 °C.
The result for `O=C(O)c1c(-c2cccc(Cl)c2)csc1N1C(=O)c2ccccc2C1=O` reads 203 to 204 °C; that for `ON=C1CCC(C2CCCC2)=C1c1cccc(O)c1`, 207 to 209 °C; that for `Clc1nccc(N[C@H]2CC[C@@H](c3ccccc3)CC2)c1Br`, 105 °C.
Consider `Cc1ccc(-c2cc(=O)c(Br)c(C(=O)O)o2)cc1`, for which the melting point is 202 to 204 °C.
The result for `C[C@H](C#Cc1sccc1COCc1ccc(F)cc1)N(O)C(N)=O` reads 94 to 95 °C; that for `O=c1c2ccccc2[nH]c(=S)n1CCN1CCC(Nc2nc3ccccc3n2Cc2ccc(F)cc2)CC1`, 198 °C.
As to `CNC(=O)c1cc2n(n1)-c1ccc(Cl)cc1C(c1ccccc1)=NC2`, the melting point lay within 170 to 172 °C.
The result for `CCOC(=O)c1nc2c(=O)[nH]c3cc(C(F)(F)F)ccc3n2c1CNCc1ccccc1` reads above 250 °C.
The figure for `Cc1cc(CCCCCCCOc2ccc(C(=O)O)cc2)on1` is 129 to 130 °C; for `O=C1CC2(CC(=O)O1)c1ccccc1Oc1ccccc12` it is 188 to 190 °C; for `COc1cc(N2C(=O)N(C)CC2O)c(F)cc1Cl` (configuration not stated) it is 138 to 140 °C.
The figure for `CCNS(=O)(=O)c1ccc(-c2cnc3[nH]c(CCc4cc(OC)ccn4)nc3c2)cc1` is 214 to 216 °C; for `CCOC(=O)c1c(CCCn2cncn2)nc2cc(OC)c(OC)cc2c1-c1ccc(OC)c(OC)c1` it is 141 to 142 °C; for `CNC(=O)c1ccccc1Sc1ccc(COC(C)=O)cc1[N+](=O)[O-]` it is 111 to 113 °C.
`O=c1c(NCCCN(Cc2cccs2)c2ccccn2)c(NCc2ccncc2)c1=O` came in with a melting point of 189 to 192 °C.
With `Cn1cc(S(=O)(=O)NC(C)(C)C)cc1C=O`, the melting point was 97 to 98 °C.
The result for `CC(C)Nc1cccnc1N(C)CCOC(=O)c1cc2ccccc2[nH]1` reads 130 to 131 °C; that for `CN(CCOc1ccc(NS(C)(=O)=O)cc1)CCc1ccc(N)cc1`, 155 to 157 °C; that for `Cc1cccc(C2C(C#N)=C(C(C)C)Nc3n[nH]cc32)c1[N+](=O)[O-]` (configuration not stated), 261 °C.
`C[C@H](CSC(=O)c1ccc(Cl)c(S(N)(=O)=O)c1)C(=O)N1CCC[C@H]1C(=O)O`: the melting point is 143 to 146 °C.
`CSc1ncc2ccc(=O)[nH]c2n1` displayed a melting point of 270 to 271 °C.
The figure for `Fc1ccccc1C1=NCc2cnc(-c3ccccc3)n2-c2ccc(Cl)cc21` is 241 to 243 °C; for `COc1ccc(C2OC3(CCNCC3)N3CCCCC23)cc1` (configuration not stated) it is 128 to 130 °C.
The figure for `O=C1NCC=C2N=CN=C12` is 242 to 245 °C; for `O=S(=O)(/C=C/c1ccc(Cl)cc1)Nc1ccc(F)cc1` it is 105 to 107 °C; for `Cc1nnc(-c2ccc(Cl)c([N+](=O)[O-])c2)[nH]1` it is 168 °C.
`Cc1nc(N)nc(N)c1C12CC3CC(CC(C3)C1)C2` registered a melting point of 254 to 258 °C.
For `COc1ccc2c(c1)C1=C[C@@H](C(=O)NC(C)(C)C)CN(C)[C@@H]1CO2` (relative stereo), the melting point lay within 188 to 189 °C.
`CC(=O)c1ccc2c(c1)C(=O)c1ccccc1CN2Cc1ccccc1` showed a melting point of 163 to 165 °C.
`CCC(=O)NCCC1CCc2c(F)cc3nn(C)cc3c21` (configuration not stated) registered a melting point of 117 to 119 °C.
The result for `C(=Cc1ccc(-c2nnn[nH]2)cc1)c1ccc(OCc2ccc3ccccc3n2)cc1` reads 241 to 243 °C; that for `CC(C)n1nc(-c2cnc(N)nc2-c2cccc(C(F)(F)F)c2)ccc1=O`, 164 to 165 °C; that for `Cn1nc(C(F)(F)F)cc1Oc1cc(C#N)cc(-c2cc(C(F)(F)F)nn2C)n1`, 164 to 165 °C.
The result for `O=C(c1ccc(C(F)(F)F)cc1)N1CCC(Cc2ccc(C3=NCCO3)cc2)CC1` reads 115 °C; that for `CCOc1ncc(NC(=O)Nc2c(CC)cccc2CC)c(-c2ccccc2Cl)n1`, 190 to 191 °C.
The figure for `COC1CN(C(=O)Nc2ccc(C(F)(F)F)cc2)N=C1c1ccc(Cl)cc1` (configuration not stated) is 185 to 186 °C; for `O=C(O)CC=C(c1ccccc1)c1ccccc1` it is 109 to 111 °C; for `CC(C(=O)O)c1cccc2c(-c3ccccc3)onc12` (configuration not stated) it is 140 to 144 °C.
With `CCN(CC)CCOC1c2ccccc2C(=O)N1c1ccccc1` (configuration not stated), the melting point lay in the range of 146 to 147 °C.
The result for `CS(=O)c1ccc(Oc2ccc([N+](=O)[O-])cc2C#N)cc1` (configuration not stated) reads 159 to 160 °C; that for `COc1ccc(/C=C(\C#N)c2ccc(O)cc2)cc1OC1CCCC1`, 138 to 140 °C; that for `CCc1cccc(Cn2[nH]c(N)cc2=O)c1`, 73 °C.
The figure for `CN1[C@@H]2CC[C@H]1[C@H](CO)[C@H](c1ccc(Cl)c(Cl)c1)C2` is 81 to 86 °C; for `CC(C)SN1N=C(c2cccc([N+](=O)[O-])c2)C(SC(C)C)(SC(C)C)C1=O` it is 73 to 74 °C; for `CC(=O)OCC1OC(ONc2ccc(C)cc2)C(OC(C)=O)C(OC(C)=O)C1OC(C)=O` (configuration not stated) it is 93 °C.
The figure for `CS(=O)(=O)Nc1n[nH]c(-c2ccncc2)c1-c1ccc(F)cc1` is 168 to 170 °C.
In the case of `CN1CCN(c2ccc3ncnc(N4CCc5ccc(Cl)cc54)c3c2)CC1`, the melting point lay within 289 to 290 °C.
The result for `CC1=NNC(=O)CC1c1ccc(OC2CCN(C(=O)OC(C)(C)C)CC2)cc1` (configuration not stated) reads 165 to 167 °C; that for `COC(=O)c1sc2c(c1N)c1ccccc1c(=O)n2-c1ccccc1Cl`, 244 to 246 °C.
Regarding `C=CCn1c(C(F)(F)F)nc2ccc(-n3c(=O)cc(C(F)(F)F)n(C)c3=O)cc21`, the melting point lay in the range of 171 to 173 °C.
The result for `COc1ccc(-c2nn(C(C)C)c3c(C(F)(F)F)cccc23)c(OC)c1` reads 128 to 129 °C; that for `c1ccc(-c2ncc(-c3nnn[nH]3)cn2)cc1`, 237 °C.
`CCCCc1nn(Cc2ccccc2C(=O)OC)c(=O)n1Cc1ccc(-c2ccccc2-c2nnn[nH]2)cc1`: the melting point was 79 to 80 °C.
`O=C(O)c1cccc(-c2ccc3ncn(Cc4ccc(Cl)cc4Cl)c3n2)c1` registered a melting point of 258 to 260 °C.
The figure for `C[C@H]1[C@@H]2C(=O)N(Cc3ccccc3)C(=O)[C@@H]2[C@H](c2ccc(C#N)cc2)N1C` (racemic) is 188 to 190 °C; for `CCC(=O)Oc1cccc2c1C(=O)c1c(OC(=O)CC)cccc1C2C(=O)CC(C)C` it is 124 °C.
The figure for `O=C(O)CCCCc1ccccc1CNC(=O)C1Cc2ccccc2N1S(=O)(=O)c1ccc(-c2cccc(C(F)(F)F)c2)cc1` (configuration not stated) is 98 to 99 °C.
The result for `CCCN=C(N)Nc1ccnc(CCCCc2ncc(CC)c(O)n2)n1` reads 140 to 142 °C; that for `Cc1c(C(=O)Nc2ccc(CN3CCC(N4CCOCC4)CC3)c(C#N)c2)cnn1-c1ccc(Cl)cc1`, 167 to 168 °C; that for `CCCc1nc(Nc2cccc(N(C)C)c2)nc(NC2CCN(S(C)(=O)=O)CC2)n1`, 134 to 136 °C.
Turning to `CC(C)C[C@H](NC(=O)OC(C)(C)C)C(=O)C=[N+]=[N-]`, the melting point lay within 72 to 74 °C.
The figure for `CC(CO)c1ccc2c(c1)Cc1ccccc1O2` (configuration not stated) is 86 to 89 °C; for `CC(C)(C)OC(=O)NCCNc1nnc(N)s1` it is 219 to 220 °C; for `CC(C)c1ccc(S(=O)(=O)Nc2ccc(N3CCC(NC(=O)OC(C)(C)C)CC3)nc2)cc1` it is 208 to 209 °C.
The figure for `CN(C)C=Nc1c(I)c(=O)n(Cc2ccccc2)c(=O)n1C` is 186 °C; for `COc1ccc(C2=NO[C@](CO)(CCO)C2)cc1OC1CCCC1` it is 108 to 109 °C; for `CCCCOCCOc1ccc(-c2ccc(N3CC=CC3)c(C=C(C)C(=O)O)c2)cc1` it is 138 to 140 °C.
The figure for `CC(=O)Nc1cccc(-c2ccc(OC[C@H](O)CCc3cccnc3)cc2)c1` is 110 to 113 °C.
